Consider four molecules from patent US20230060588A1 (priority 2021, published 2023).

Data set [1] relates to MCF7 cells. The format is cell-based.
Data set [2] concerns MCF7 cells.
The subject of data set [3] is A375 cells. The format is cell-based.
The subject of data set [4] is A375 cells.
Data set [5] relates to Reporter mNeonGreen SARS-CoV-2 virus (2019-nCoV/USA_WA1/2020). The format is cell-based.
Data set [6] has as its system PANC1 cells. The format is cell-based.
In data set [7] the test system is MCF7 cells. The format is cell-based. This is another data set of the same source.
The subject of another data set is ACE2. The class given is cell-based, human.
The test system of data set [8] is PANC1 cells. The format is cell-based. This is another data set of the same source.
The test system of the next data set is LN18 cells. The class given is cell-based.
The subject of another data set is MDA-MB-231 cells. The format is cell-based.
For data set [9], the system named is SARS-CoV-2 S1 protein-ACE2. The format is binding.
The next data set concerns A549 cells. The format is cell-based, human.
The subject of the next data set is SARS-CoV-2 S1 protein. The format is cell-based.
A further data set relates to SARS-CoV-2. The settings on record: cited from earlier work.

As for `CC(=O)OC1O[C@H](CO)[C@@H](OC(C)=O)[C@H](OC(C)=O)[C@@H]1OC(C)=O` (stereo partly drawn) [1,2,3,4-tetra-O-Acetyl-D-mannopyranose], in the data set with MCF7 cells [1], the ECL binding result is reported as “moderately reduced”, the MAL2 binding result is on record as “no effect”, the PNA binding result is on record as “significantly reduced” and the SNA binding result is given as “no effect”. Besides, the cell toxicity result with MCF7 cells [2] is listed as “induced cell toxicity at a higher concentration”. In addition, the “concentrations having no impact on cell viability” value with MCF7 cells [2] (human) is listed as “less than 0.7 mM”.
Regarding `CC(=O)OC1O[C@H](CO)[C@@H](OC(C)=O)[C@H](O)[C@@H]1O` (stereo partly drawn) [1,4-di-O-acetyl-D-mannopyranose], in the data set with A375 cells [3], the ECL binding entry is “no effect”, the MAL2 binding entry is reported as “no effect”, the PNA binding result is “significantly reduced” and the SNA binding entry is listed as “no effect”. Moreover, in the data set on A375 cells [4], the cell viability entry is reported as “did not have any influence on cell viability”.
With `O=C[C@@H](O)[C@@H](O)[C@H](O)[C@H](O)CO` [D-mannose], in data set [5], the cytoprotection result is recorded as “significant cytoprotection” and the “reduction in viral replication” value is on record as around 70%. Moreover, in the data set on PANC1 cells [6], the “disialyl T antigen/T antigen ratio” value is “significantly increased” and the “sialyl T antigen/T antigen ratio” value is reported as “significantly increased”. Further, in the data set with MCF7 cells [1], the ECL binding result is “generally reduced”, the MAL2 binding result was “increasing”, the PNA binding result is recorded as “generally reduced” and the SNA binding entry was “increasing”. Further, in the data set on MCF7 cells [7], the “disialyl T antigen/T antigen ratio” value is “significantly enhanced” and the “sialylation of complex N-glycans” value is reported as “sialic acids were added to multiple N-glycans”. The ACE2 expression entry with ACE2 is listed as “did not significantly change”. Moreover, in the data set on PANC1 cells [8], the ECL binding result is “generally reduced”, the MAL2 binding result is “increasing”, the PNA binding result is given as “generally reduced” and the SNA binding result is recorded as “increasing”. In addition, in the data set with LN18 cells, the ECL binding result is given as “significantly reduced”, the MAL2 binding result is “no effect on enhancing”, the PNA binding result was “significantly reduced” and the SNA binding result was “no effect on enhancing”. Besides, in the data set on MDA-MB-231 cells, the ECL binding result was “significantly reduced”, the MAL2 binding result is “no effect on enhancing”, the PNA binding entry was “significantly reduced” and the SNA binding entry was “no effect on enhancing”. Further, the “ACE2 binding of S1 protein” value in [9] is “reduced ACE2 binding”. Moreover, in the data set with A549 ACE2+ cells, the cytotoxicity result was “no observed cytotoxicity” and the total cell count entry is “negligible difference in cell count”. Also, in the data set with A549 cells, the ECL binding result is recorded as “significantly reduced”, the MAL2 binding result is on record as “slightly enhancing”, the PNA binding entry is reported as “minimal to no influence” and the SNA binding entry is “minimal to no influence”. Also, in the data set on SARS-CoV-2 S1 protein, the “ECL binding to S1 protein” value is on record as “significantly reduced”, the “MAL1 binding to S1 protein” value is listed as “moderately reduced”, the “MAL2 binding to S1 protein” value was “moderately reduced” and the “PNA binding to S1 protein” value is given as “No PNA binding was observed”. Further, in the data set with SARS-CoV-2 S1 protein, the “RSL binding to S1 protein” value was “significantly reduced” and the “SNA binding to S1 protein” value was “no change”.
`CN(Cc1cnc2nc(N)nc(N)c2n1)c1ccc(C(=O)N[C@@H](CCC(=O)O)C(=O)O)cc1` [methotrexate]: the SARS-CoV-2 replication entry with SARS-CoV-2 is “reduced”.
